From patent publication US12195476B2, “Synthesis method of furoimidazopyridine compound, crystal form of furoimidazopyridine compound, and crystal form of salt thereof” (HANGZHOU HIGHLIGHTLL PHARMACEUTICAL CO., LTD, priority 2019, dated 2025)

Legend:
TYK2 = target: T1, TYK2 (Homo sapiens, UniProt P29597); assay: TYK2 biochemical test (33P-ATP filter binding kinase assay, Reaction Biology Corp); settings: 2 hours at room temperature
T1 construct: purchased Reaction Biology Corp, Malvern, PA (contract test)
T1 sequence (P29597 whole entry): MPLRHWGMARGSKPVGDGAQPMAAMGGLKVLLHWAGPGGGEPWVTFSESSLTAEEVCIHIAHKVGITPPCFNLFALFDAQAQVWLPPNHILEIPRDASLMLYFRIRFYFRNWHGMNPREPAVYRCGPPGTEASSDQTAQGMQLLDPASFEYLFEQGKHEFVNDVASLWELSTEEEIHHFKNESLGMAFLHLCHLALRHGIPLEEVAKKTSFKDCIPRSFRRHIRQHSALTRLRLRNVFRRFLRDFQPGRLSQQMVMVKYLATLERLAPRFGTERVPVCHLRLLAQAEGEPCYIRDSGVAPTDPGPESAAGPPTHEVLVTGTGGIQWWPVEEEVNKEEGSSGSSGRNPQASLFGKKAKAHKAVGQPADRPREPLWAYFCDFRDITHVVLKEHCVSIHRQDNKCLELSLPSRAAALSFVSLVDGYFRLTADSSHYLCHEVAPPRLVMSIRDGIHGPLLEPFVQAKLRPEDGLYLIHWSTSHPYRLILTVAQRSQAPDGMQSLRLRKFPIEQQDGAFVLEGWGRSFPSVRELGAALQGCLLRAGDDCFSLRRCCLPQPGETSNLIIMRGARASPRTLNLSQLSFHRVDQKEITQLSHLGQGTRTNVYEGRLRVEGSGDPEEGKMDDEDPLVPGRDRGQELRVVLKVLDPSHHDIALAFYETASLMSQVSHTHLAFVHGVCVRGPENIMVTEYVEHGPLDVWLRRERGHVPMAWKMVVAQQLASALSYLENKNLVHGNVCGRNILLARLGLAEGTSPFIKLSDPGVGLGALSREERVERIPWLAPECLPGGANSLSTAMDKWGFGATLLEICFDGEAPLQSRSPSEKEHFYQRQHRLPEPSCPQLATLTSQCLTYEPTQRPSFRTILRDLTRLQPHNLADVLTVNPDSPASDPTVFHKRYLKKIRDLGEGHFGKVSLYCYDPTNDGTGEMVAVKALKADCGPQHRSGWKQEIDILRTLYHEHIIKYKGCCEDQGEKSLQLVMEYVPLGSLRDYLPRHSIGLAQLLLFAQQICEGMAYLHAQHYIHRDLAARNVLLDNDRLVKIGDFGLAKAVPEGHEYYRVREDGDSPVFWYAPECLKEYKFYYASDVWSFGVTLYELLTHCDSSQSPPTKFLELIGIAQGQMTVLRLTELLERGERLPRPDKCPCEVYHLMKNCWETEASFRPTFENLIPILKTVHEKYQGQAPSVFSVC
Description: An appropriate amount of a compound of formula I was weighed for TYK2 biochemical test.
The test was conducted by Reaction Biology Corp, Malvern, PA (Anastassiadis et al. Nat Biotechnol. 2011; 29(11):1039-45). The step is briefly described as follows.
Basic reaction buffer: 20 mM Hepes (pH 7.5), 10 mM MgCl2, 1 mM EGTA, 0.02% Brij35, 0.02 mg/ml BSA, 0.1 mM Na3VO4, 2 mM DTT and 1% DMSO. The required cofactor was added to each kinase reaction respectively.
• 1. Preparing the designated substrate in the newly prepared basic reaction buffer; • 2. Transferring the required cofactor to the above matrix solution; • 3. Transferring the designated kinase to the substrate solution and mixing well slightly; • 4. Transferring a compound of formula I in DMSO to the kinase reaction mixture with Acoustic technique (Echo550; nanoliter range), culturing for 20 minutes at room temperature; • 5. Introducing ^33P-ATP (specific activity: 10 μCi/μl) to the reaction mixture to trigger a reaction; • 6. Culturing at room temperature and conducting a kinase reaction for 2 hours; • 7. Plotting the reaction on P81 ion exchange paper; • 8. Testing the kinase activity with a filter binding assay.

JAK1 = JAK1 (Homo sapiens, UniProt P23458); settings: result in words; cited from earlier work
JAK1, sequence (P23458 whole entry): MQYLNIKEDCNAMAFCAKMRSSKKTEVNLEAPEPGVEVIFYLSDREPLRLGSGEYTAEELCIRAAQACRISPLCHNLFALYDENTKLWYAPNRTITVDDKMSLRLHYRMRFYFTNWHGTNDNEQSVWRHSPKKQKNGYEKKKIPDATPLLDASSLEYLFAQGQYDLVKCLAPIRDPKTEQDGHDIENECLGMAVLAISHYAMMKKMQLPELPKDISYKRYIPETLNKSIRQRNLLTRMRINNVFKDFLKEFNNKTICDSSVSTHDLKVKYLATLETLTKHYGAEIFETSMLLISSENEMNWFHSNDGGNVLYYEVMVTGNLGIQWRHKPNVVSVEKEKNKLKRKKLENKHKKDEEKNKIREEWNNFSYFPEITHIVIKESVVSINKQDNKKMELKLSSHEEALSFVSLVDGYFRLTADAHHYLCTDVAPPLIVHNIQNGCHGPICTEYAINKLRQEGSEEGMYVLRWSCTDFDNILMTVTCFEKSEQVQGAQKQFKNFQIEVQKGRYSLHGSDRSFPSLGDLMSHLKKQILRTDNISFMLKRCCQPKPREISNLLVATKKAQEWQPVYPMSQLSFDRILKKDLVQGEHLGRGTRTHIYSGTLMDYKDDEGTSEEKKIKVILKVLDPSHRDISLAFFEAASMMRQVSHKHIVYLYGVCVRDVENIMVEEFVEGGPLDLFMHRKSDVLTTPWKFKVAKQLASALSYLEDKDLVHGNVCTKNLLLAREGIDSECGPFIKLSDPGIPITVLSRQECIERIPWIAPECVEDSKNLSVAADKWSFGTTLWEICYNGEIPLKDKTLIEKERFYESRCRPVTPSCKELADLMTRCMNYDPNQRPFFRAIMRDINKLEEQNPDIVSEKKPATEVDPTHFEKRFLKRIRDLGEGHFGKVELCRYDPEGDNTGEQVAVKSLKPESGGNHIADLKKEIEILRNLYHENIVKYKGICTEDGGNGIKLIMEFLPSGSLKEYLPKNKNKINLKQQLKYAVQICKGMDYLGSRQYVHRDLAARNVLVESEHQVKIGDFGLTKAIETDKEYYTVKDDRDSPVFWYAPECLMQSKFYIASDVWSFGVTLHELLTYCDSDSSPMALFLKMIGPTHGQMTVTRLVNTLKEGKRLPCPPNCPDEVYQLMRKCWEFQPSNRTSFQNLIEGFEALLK

[1] = test system: IL-6-induced STAT3 phosphorylation; settings: result in words; cited from earlier work
[2] = test system: thrombopoietin-induced STAT3 phosphorylation; settings: result in words; cited from earlier work

IC50 (TYK2): < 10 nM
Structure (SMILES): C[C@@H](O)c1nc2cnc3ccoc3c2n1[C@H]1CC[C@H](CC#N)OC1 [compound I, 2-[(2R,5S)-5-[2-[(R)-1-hydroxyethyl]furo[3,2-b]imidazo[4,5-d]pyridin-1-yl]tetrahydropyran-2-yl]acetonitrile]
JAK1 inhibition (JAK1): potent and selective JAK1 inhibitor | inhibition of IL-6-induced STAT3 phosphorylation [1]: demonstrated selective inhibition | inhibition of thrombopoietin-induced STAT3 phosphorylation [2]: did not show selective inhibition
